Data reported in patent publication US9414591B2, “Chitooligosaccharides and methods for use in enhancing corn growth” (NOVOZYMES BIOAG A/S, priority 2011, dated 2016).

Legend:
Format in all cases: in vivo
[1] = system: Hybrid corn seeds (92L90); assay: Greenhouse corn seed treatment, plant dry weight (Example 1); conditions: seed treatment solution 10^-8 M
Description: Two seed treatment experiments using only Pea LCO, Pea CO and the CO mixtures obtained from chitosan by enzymatic process (structurally distinct from the Pea CO, and also referred to in the examples as the “China CO”) were performed in greenhouse. Hybrid corn seeds (92L90, Peterson Farm, USA) were treated with treatment solution (10^-8 M) at the rate of 3 fl oz/100 lbs of seed. Seeds were planted in plastic pots containing 1:1 Sand:Perlite mixture. Seeds were allowed to grow for about 3-4 weeks and then they were harvested and their dry weight measured.

corn foliage = assay: Field trials, grain yield when applied to corn foliage (Example 4)
corn seed = assay: Field trials, grain yield when applied to corn seed before planting (Example 5)
Corn seeds [2] = assay: Greenhouse corn seed application, seedling dry weight (Example 3); conditions: alone at 10^−8 M; harvested 10 days after planting (FIG. 9)
Description: Corn seeds were treated with various combinations of Pea CO (10^-8 M) and Pea LCO (10-8, 10^-9 M). Seeds were planted in greenhouse plastic pots containing 1:1 sand:perlite mixture. Seedlings were harvested 10 days after planting, washed clean and then dried in an oven at 60 C for 48 hr.

Corn seeds [3] = assay: Corn seed germination in petriplates (Example 2); conditions: 5 days after plating
Description: Corn seeds were plated in petriplates containing 5 ml of treatment solution on a filter paper. Corn seeds were placed on moist filter paper for germination. Similarly, wheat seeds (spring wheat) were placed in petriplates. […] Roots were harvested and their length measured by WinRhizo system.

[4] = seed treatment, CO compared to LCO, less

SMILES: CC(=O)NC1C(O)OC(CO)C(OC2OC(CO)C(OC3OC(CO)C(OC4OC(CO)C(OC5OC(CO)C(O)C(O)C5N)C(O)C4NC(C)=O)C(O)C3NC(C)=O)C(O)C2NC(C)=O)C1O (stereo not shown) [CO (CO-V)]
- shoot, root and total biomass / plant dry weight compared to LCO ([1]; both experiments): greater shoot, root and total biomass increase over non-inventive and comparable LCO
- dry weight increase over LCO ([1]; first trial (FIG. 5), 3 fl oz/100 lbs of seed, harvested after about 3-4 weeks): 11.84%
- dry weight-increase over LCO ([1]; second trial (FIG. 6), 3 fl oz/100 lbs of seed, harvested after about 3-4 weeks): 12.63%
- yield enhancement as a foliar treatment (corn foliage): performed at least twice better than the LCO
- CO mean yield better than foliar LCO response (corn foliage; CO compared to LCO): 5.0 bu/A
- YIELD, Response Increase (% of Control) (corn foliage; foliar): 4.8 % of Control
- YIELD, Mean (N = 16) (corn foliage; foliar, 4 ounces per acre with glyphosate herbicide, 16 field trials): 201.8 bu/A
- higher yield increase than LCO (corn foliage; foliar, CO compared to LCO): 2.6%
- trials with a positive response, better than LCO (corn foliage; foliar, CO compared to LCO): 18.8%
- Positive Yield Response (%) (corn foliage; foliar, share of the 16 trials with positive yield enhancement): 93.8%
- YIELD, Response (bu/A) (corn foliage; foliar, versus Control (water)): 9.2 bu/A
- YIELD, Response Increase (% of Control) (corn seed; seed treatment): 3.6 % of Control
- yield enhancement when applied to corn seed (corn seed; seed treatment): provided yield enhancement above the Control
- YIELD, Mean (N = 10) (corn seed; seed treatment 1×10-8 molar, 1 μg/acre, 3 fluid ounces per 50 pounds of seed, 10 field trials): 188.0 bu/A
- CO mean yield less than LCO (corn seed; [4]): 4.6 bu/A
- less positive yield responses than LCO (corn seed; [4]): 10.0%
- less yield increase above the Control than LCO (corn seed; [4]): 2.5%
- Positive Yield Response (%) (corn seed; seed treatment, share of the 10 trials with positive yield enhancement): 80.0%
- YIELD, Response (bu/A) (corn seed; seed treatment, versus Control (water)): 6.5 bu/A
- corn seedling dry weight (Corn seeds [2]): increased corn seedling dry weight
- seed germination (Corn seeds [3]; 5 ml treatment solution on filter paper, vs control (FIG. 7)): increased germination
- seedling root length (Corn seeds [3]; WinRhizo system, vs control): significantly increased seedling root length over control
